Reference: patent US20240270739A1, “Heteroaryl Fluoroalkenes As DGK Inhibitors” (Incyte Corporation, priority 2023, published 2024)

Columns and labels:
DGKα = target: T1, DGKα (Homo sapiens, UniProt P23743); assay: In vitro DGKα inhibition assay (ADP-Glo); type: biochemical; conditions: His-tagged human recombinant enzyme, 0.1 nM DGKα, 50 μM ATP, 20 μM DLG, 90 minute incubation
T1 construct: His; purchased Signal Chem D21-10BH
Experimental: (§1) The DGKα and DGKζ biochemical reactions were performed using His-tagged human recombinant enzymes (Signal Chem, DGKα, #D21-10BH; DGKζ, #D30-10H)) and DLG (Dilauroyl-sn-glycerol) lipid substrate (Signal Chem, #D430-59). ADP-Glo assay was performed using ADP-Glo™ kinase Assay kit (Promega, #V9104). The reactions were carried out in assay buffer containing 40 mM Tris, pH 7.5, 0.1% CHAPS, 0.1% Prionex, 40 mM NaCl, 5 mM MgCl2, 1 mM CaCl2, and 1 mM DTT. DGKα reactions contained 0.1 nM DGKα, 50 μM ATP, and 20 μM DLG. And DGKζ reactions contained 0.4 nM DGKζ, 30 μM ATP, and 20 μM DLG.
(§2) For compound inhibition studies, 40 nL test compound in DMSO was added to wells of white polystyrene plates in 384-well (Greiner, #784075) or 1536-well format (Greiner, #782075). Compounds were added with top concentration of 2 mM with 11 point, 3-fold dilution series. Enzyme solution (contains 2×DGK enzyme concentration in 1× assay buffer) was added to the plate in 2 μL/well volume, followed by 2 μL/well of substrate solution (contains 2× concentration of ATP and DLG substrate in 1× assay buffer). Plates were then centrifuged for 1 min at 1200 RPM and sealed or lidded. For 4 μL reaction volume, test compounds were therefore diluted 100× to final top concentration of […]. After 90 minute incubation, reactions were quenched by addition of 2 μL/well Promega ADP-Glo Reagent, followed by centrifugation and lidding. After 60 min incubation, 2 μL/well Promega Kinase Detection Reagent was added, plates centrifuged, and incubated for 30 min. Plates were then read using Luminescence method on BMG PHERAstar FSX plate reader. Percent inhibition was calculated and IC50s were determined using 4-parameter fit in Genedata Screener. Labcyte Echo acoustic dispenser was used for compound addition, and Formulatrix Tempest liquid handler was used for all reagent dispenses. The compounds of the disclosure were tested in one or more of the assays described above, and the resulting data are shown in Table A.

DGKζ = target: T2, DGKζ (Homo sapiens, UniProt Q13574); assay: In vitro DGKζ inhibition assay (ADP-Glo); type: biochemical; conditions: His-tagged human recombinant enzyme, 0.4 nM DGKζ, 30 μM ATP, 20 μM DLG, 90 minute incubation
T2 construct: His; purchased Signal Chem D30-10H
T2 sequence (Q13574 whole entry): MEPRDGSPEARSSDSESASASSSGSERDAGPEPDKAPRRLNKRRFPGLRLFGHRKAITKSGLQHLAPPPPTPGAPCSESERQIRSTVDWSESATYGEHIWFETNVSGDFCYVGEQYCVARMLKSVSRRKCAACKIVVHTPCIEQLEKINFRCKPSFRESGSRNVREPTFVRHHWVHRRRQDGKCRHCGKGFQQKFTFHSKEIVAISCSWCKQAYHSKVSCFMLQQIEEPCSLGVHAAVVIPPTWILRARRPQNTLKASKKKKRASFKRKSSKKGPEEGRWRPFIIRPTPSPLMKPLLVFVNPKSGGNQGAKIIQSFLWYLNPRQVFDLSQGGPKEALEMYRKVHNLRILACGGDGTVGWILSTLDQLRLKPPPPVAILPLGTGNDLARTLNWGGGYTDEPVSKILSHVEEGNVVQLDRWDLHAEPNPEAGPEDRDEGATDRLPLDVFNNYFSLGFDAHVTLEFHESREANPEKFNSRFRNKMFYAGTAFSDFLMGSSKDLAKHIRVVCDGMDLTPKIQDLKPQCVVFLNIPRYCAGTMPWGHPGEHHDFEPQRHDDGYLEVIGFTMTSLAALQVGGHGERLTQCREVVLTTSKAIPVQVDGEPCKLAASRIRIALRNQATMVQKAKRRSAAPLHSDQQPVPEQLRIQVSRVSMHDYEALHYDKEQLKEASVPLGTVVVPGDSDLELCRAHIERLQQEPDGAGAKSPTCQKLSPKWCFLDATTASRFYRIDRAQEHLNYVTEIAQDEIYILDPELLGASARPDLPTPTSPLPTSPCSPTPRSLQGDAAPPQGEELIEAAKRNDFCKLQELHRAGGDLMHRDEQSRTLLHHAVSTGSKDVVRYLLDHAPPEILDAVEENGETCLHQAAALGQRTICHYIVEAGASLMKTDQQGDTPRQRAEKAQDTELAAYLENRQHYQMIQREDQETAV
Experimental: as §1, §2

T1 sequence (P23743 whole entry): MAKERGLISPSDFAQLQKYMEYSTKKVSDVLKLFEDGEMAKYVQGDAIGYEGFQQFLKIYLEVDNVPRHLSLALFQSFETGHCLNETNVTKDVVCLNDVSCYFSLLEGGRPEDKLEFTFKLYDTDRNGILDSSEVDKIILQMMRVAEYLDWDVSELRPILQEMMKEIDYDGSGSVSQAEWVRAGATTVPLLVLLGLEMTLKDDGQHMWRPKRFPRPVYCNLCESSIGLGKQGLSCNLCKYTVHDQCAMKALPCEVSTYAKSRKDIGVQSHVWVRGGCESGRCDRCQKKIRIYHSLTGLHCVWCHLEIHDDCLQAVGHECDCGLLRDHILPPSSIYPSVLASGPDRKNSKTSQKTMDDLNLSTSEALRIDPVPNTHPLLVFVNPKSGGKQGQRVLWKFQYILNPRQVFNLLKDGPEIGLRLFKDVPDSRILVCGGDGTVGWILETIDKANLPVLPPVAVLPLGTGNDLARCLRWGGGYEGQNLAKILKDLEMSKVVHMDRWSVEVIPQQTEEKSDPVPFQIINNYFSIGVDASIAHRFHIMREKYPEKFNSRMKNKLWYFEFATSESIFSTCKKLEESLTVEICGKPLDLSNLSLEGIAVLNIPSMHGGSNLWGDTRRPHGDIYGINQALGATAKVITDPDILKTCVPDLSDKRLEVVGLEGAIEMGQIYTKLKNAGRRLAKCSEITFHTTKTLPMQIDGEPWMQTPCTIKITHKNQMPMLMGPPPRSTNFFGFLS

Row | SMILES | IC50 (DGKα) [µM] | IC50 (DGKζ) [µM]
1 | F/C(=C\c1ccc(OC2CCCCC2)c(C(F)(F)F)c1N1CCCC2(CCN(CC3CC3)CC2)C1)c1ccn(-c2ccnnc2)n1 [Example 15, (Z)-2-(3-(Cyclohexyloxy)-6-(2-fluoro-2-(1-(pyridazin-4-yl)-1H-pyrazol-3-yl)vinyl)-2-(trifluoromethyl)phenyl)-9-(cyclopropylmethyl)-2,9-diazaspiro[5.5]undecane] | 0.02 to 0.2 | ≤ 0.02
2 | F/C(=C\c1ccc(Oc2ccccc2)c(C(F)(F)F)c1N1CCCC2(CCN(CC3CC3)CC2)C1)c1csc(-c2ccnnc2)n1 [Example 18, (Z)-4-(2-(2-(9-(Cyclopropylmethyl)-2,9-diazaspiro[5.5]undecan-2-yl)-4-phenoxy-3-(trifluoromethyl)phenyl)-1-fluorovinyl)-2-(pyridazin-4-yl)thiazole] | 0.02 to 0.2 | ≤ 0.02
3 | F/C(=C\c1ccc(Oc2ccccc2)c(C(F)(F)F)c1N1CCCC2(CCN(CC3CC3)CC2)C1)c1ccn(-c2ccnnc2)n1 [Example 21, (Z)-9-(Cyclopropylmethyl)-2-(6-(2-fluoro-2-(1-(pyridazin-4-yl)-1H-pyrazol-3-yl)vinyl)-3-phenoxy-2-(trifluoromethyl)phenyl)-2,9-diazaspiro[5.5]undecane] | 0.02 to 0.2 | ≤ 0.02
4 | F/C(=C\c1ccc(Oc2cccc(F)c2F)c(Cl)c1N1CCCC2(CCN(CC3CC3)CC2)C1)c1ccn(-c2ccnnc2)n1 [Example 22, (Z)-2-(2-Chloro-3-(2,3-difluorophenoxy)-6-(2-fluoro-2-(1-(pyridazin-4-yl)-1H-pyrazol-3-yl)vinyl)phenyl)-9-(cyclopropylmethyl)-2,9-diazaspiro[5.5]undecane] | ≤ 0.02 | 0.02 to 0.2
5 | OCCN1CCC2(CCCN(c3c(/C=C(\F)c4csc(-c5ccnnc5)n4)ccc(Oc4ccccc4)c3C(F)(F)F)C2)CC1 [Example 23, (Z)-2-(2-(6-(2-Fluoro-2-(2-(pyridazin-4-yl)thiazol-4-yl)vinyl)-3-phenoxy-2-(trifluoromethyl)phenyl)-2,9-diazaspiro[5.5]undecan-9-yl)ethan-1-ol] | 0.02 to 0.2 | ≤ 0.02
6 | CCN1CCC2(CCCN(c3c(/C=C(\F)c4ccn(-c5ccnnc5)n4)ccc(Oc4ccccc4)c3C(F)(F)F)C2)CC1 [Example 24, (Z)-9-Ethyl-2-(6-(2-fluoro-2-(1-(pyridazin-4-yl)-1H-pyrazol-3-yl)vinyl)-3-phenoxy-2-(trifluoromethyl)phenyl)-2,9-diazaspiro[5.5]undecane] | 0.02 to 0.2 | ≤ 0.02

The next lines start with the values.

Row | IC50 (DGKα) [µM] | IC50 (DGKζ) [µM] | SMILES
7 | ≤ 0.02 | ≤ 0.02 | F/C(=C\c1ccc(Oc2cccc(F)c2F)c(C(F)(F)F)c1N1CCCC2(CCN(CC3CC3)CC2)C1)c1csc(-c2ccnnc2)n1 [Example 11, (Z)-4-(2-(2-(9-(Cyclopropylmethyl)-2,9-diazaspiro[5.5]undecan-2-yl)-4-(2,3-difluorophenoxy)-3-(trifluoromethyl)phenyl)-1-fluorovinyl)-2-(pyridazin-4-yl)thiazole]
8 | ≤ 0.02 | ≤ 0.02 | CC(C)(O)CN1CCC2(CCCN(c3c(/C=C(\F)c4csc(-c5ccnnc5)n4)ccc(Oc4ccccn4)c3C(F)(F)F)C2)CC1 [Example 12, (Z)-1-(2-(6-(2-Fluoro-2-(2-(pyridazin-4-yl)thiazol-4-yl)vinyl)-3-(pyridin-2-yloxy)-2-(trifluoromethyl)phenyl)-2,9-diazaspiro[5.5]undecan-9-yl)-2-methylpropan-2-ol]
9 | ≤ 0.02 | ≤ 0.02 | OCCN1CCC2(CCCN(c3c(/C=C(\F)c4csc(-c5ccnnc5)n4)ccc(Oc4ccccn4)c3C(F)(F)F)C2)CC1 [Example 13, (Z)-2-(2-(6-(2-Fluoro-2-(2-(pyridazin-4-yl)thiazol-4-yl)vinyl)-3-(pyridin-2-yloxy)-2-(trifluoromethyl)phenyl)-2,9-diazaspiro[5.5]undecan-9-yl)ethan-1-ol]
10 | ≤ 0.02 | ≤ 0.02 | F/C(=C\c1ccc(Oc2ccccn2)c(C(F)(F)F)c1N1CCCC2(CCN(CC3CC3)CC2)C1)c1csc(-c2ccnnc2)n1 [Example 14, (Z)-4-(2-(2-(9-(Cyclopropylmethyl)-2,9-diazaspiro[5.5]undecan-2-yl)-4-(pyridin-2-yloxy)-3-(trifluoromethyl)phenyl)-1-fluorovinyl)-2-(pyridazin-4-yl)thiazole]
11 | ≤ 0.02 | ≤ 0.02 | F/C(=C\c1ccc(Oc2ccccn2)c(C(F)(F)F)c1N1CCCC2(CCN(CC3CC3)CC2)C1)c1ccn(-c2ccnnc2)n1 [Example 16, (Z)-9-(Cyclopropylmethyl)-2-(6-(2-fluoro-2-(1-(pyridazin-4-yl)-1H-pyrazol-3-yl)vinyl)-3-(pyridin-2-yloxy)-2-(trifluoromethyl)phenyl)-2,9-diazaspiro[5.5]undecane]
12 | ≤ 0.02 | ≤ 0.02 | CCN1CCC2(CCCN(c3c(/C=C(\F)c4csc(-c5ccnnc5)n4)ccc(Oc4ccccc4)c3C(F)(F)F)C2)CC1 [Example 17, (Z)-4-(2-(2-(9-Ethyl-2,9-diazaspiro[5.5]undecan-2-yl)-4-phenoxy-3-(trifluoromethyl)phenyl)-1-fluorovinyl)-2-(pyridazin-4-yl)thiazole]
13 | ≤ 0.02 | ≤ 0.02 | CCN1CC2(CCCN(c3c(/C=C(\F)c4ccn(-c5ccnnc5)n4)ccc(Oc4cccc(F)c4F)c3C(F)(F)F)C2)C1 [Example 19, (Z)-6-(3-(2,3-Difluorophenoxy)-6-(2-fluoro-2-(1-(pyridazin-4-yl)-1H-pyrazol-3-yl)vinyl)-2-(trifluoromethyl)phenyl)-2-ethyl-2,6-diazaspiro[3.5]nonane]
14 | ≤ 0.02 | 0.02 to 0.2 | F/C(=C\c1ccc(Oc2cccc(F)c2F)c(C(F)(F)F)c1N1CCCC2(CN(CC3CC3)C2)C1)c1ccn(-c2ccnnc2)n1 [Example 20, (Z)-2-(Cyclopropylmethyl)-6-(3-(2,3-difluorophenoxy)-6-(2-fluoro-2-(1-(pyridazin-4-yl)-1H-pyrazol-3-yl)vinyl)-2-(trifluoromethyl)phenyl)-2,6-diazaspiro[3.5]nonane]
